Legend:
Experiment in all cases: KINOMEscan (ScanMAX) kinase profiling
Format in all cases: binding
[1] = target: T1, panel of 468 kinases (Homo sapiens, UniProt Q6ZN16); settings: MAP3K15; 1 μM; read-out: % control
T1 construct: purchased KINOMEscan (ScanMAX) service
T1 sequence (Q6ZN16 1-1313): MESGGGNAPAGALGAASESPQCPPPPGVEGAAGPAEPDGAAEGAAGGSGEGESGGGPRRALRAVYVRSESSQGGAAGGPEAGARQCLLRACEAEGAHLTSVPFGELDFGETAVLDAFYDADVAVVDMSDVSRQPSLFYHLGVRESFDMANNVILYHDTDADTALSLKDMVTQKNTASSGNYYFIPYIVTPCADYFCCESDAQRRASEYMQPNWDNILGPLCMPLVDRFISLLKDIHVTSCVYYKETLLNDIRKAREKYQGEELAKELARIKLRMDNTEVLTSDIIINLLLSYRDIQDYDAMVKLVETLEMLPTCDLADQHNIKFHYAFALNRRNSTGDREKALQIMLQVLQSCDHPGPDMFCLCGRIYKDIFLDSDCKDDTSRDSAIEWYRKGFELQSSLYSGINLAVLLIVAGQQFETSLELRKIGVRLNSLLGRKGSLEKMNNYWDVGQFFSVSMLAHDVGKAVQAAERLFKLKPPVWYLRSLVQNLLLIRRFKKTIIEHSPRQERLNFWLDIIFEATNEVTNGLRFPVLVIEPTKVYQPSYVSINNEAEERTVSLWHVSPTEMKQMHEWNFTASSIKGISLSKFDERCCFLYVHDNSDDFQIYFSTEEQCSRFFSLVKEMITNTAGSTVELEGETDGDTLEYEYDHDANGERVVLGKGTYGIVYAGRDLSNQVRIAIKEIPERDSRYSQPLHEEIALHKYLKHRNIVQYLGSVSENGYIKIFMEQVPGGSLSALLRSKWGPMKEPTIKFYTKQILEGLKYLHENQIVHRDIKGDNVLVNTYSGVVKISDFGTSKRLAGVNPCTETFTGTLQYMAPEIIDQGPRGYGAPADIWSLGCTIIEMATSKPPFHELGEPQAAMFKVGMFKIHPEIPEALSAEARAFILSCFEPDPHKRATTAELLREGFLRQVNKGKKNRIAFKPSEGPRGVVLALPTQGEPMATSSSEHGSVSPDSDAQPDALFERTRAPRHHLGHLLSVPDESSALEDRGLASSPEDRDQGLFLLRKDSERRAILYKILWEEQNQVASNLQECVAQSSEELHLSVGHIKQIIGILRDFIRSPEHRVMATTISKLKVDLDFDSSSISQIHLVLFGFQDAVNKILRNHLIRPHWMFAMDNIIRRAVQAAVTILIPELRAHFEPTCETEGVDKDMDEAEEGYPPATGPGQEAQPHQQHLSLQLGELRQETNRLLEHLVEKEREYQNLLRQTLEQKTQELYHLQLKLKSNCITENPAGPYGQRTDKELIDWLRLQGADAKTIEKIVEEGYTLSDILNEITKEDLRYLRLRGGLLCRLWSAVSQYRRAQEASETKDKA

[2] = target: T2, panel of 468 kinases (Homo sapiens, UniProt P46734); settings: MEK3; 1 μM; read-out: % control
T2 construct: purchased KINOMEscan (ScanMAX) service
T2 sequence (P46734 1-347): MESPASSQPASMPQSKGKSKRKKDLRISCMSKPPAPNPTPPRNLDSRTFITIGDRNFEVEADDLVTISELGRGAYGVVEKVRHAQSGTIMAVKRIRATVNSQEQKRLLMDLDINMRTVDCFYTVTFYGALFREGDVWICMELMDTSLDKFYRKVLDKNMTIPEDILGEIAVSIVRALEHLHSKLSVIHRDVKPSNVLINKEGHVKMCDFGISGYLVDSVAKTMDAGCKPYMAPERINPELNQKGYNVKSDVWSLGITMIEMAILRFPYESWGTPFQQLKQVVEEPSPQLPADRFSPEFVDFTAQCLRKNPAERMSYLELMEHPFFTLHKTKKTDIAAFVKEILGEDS

[3] = target: T3, panel of 468 kinases (Homo sapiens, UniProt O43318); settings: TAK1; 1 μM; read-out: % control
T3 construct: purchased KINOMEscan (ScanMAX) service
T3 sequence (O43318 1-606): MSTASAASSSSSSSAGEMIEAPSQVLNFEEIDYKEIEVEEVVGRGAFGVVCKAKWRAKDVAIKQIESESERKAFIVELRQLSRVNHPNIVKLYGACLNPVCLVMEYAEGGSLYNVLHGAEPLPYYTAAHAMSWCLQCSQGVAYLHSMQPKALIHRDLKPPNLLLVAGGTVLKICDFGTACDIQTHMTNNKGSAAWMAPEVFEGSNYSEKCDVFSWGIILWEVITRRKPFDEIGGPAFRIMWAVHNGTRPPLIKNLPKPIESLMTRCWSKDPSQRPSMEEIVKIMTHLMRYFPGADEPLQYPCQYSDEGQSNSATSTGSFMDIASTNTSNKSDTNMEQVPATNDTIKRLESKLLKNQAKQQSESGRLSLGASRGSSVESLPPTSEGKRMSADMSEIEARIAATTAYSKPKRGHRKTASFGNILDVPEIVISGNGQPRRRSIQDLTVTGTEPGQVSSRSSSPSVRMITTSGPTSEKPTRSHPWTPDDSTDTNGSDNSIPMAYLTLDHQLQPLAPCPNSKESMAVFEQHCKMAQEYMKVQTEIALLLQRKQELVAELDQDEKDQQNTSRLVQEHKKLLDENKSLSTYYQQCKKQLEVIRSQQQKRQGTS

Row | Compound | remaining binding at 1 µM [1] | remaining binding at 1 µM [2] | remaining binding at 1 µM [3]
1 | CNc1nc(Nc2ccc(C(=O)N3CCC(N4CCOCC4)CC3)c3c2OCO3)nc2[nH]cc(Cl)c12 [Compound 75, (7-((5-chloro-4-(methylamino)-7H-pyrrolo[2,3-d]pyrimidin-2-yl)amino)benzo[d][1,3]dioxol-4-yl)(4-morpholinopiperidin-1-yl)methanone] | 39% | 2.4% | 29%
2 | CNc1nc(Nc2ccc(S(=O)(=O)N3CCC(N4CCOCC4)CC3)cc2OC)nc2[nH]cc(Cl)c12 [Compound 12, 5-chloro-N2-(2-methoxy-4-((4-morpholinopiperidin-1-yl)sulfonyl)phenyl)-N4-methyl-7H-pyrrolo[2,3-d]pyrimidine-2,4-diamine] | 75% | 26% | 100%
3 | CNc1nc(Nc2ccc(P3(=O)CCN(C4CCOCC4)CC3)cc2OC)nc2[nH]cc(Cl)c12 [Compound 77, 4-(4-((5-chloro-4-(methylamino)-7H-pyrrolo[2,3-d]pyrimidin-2-yl)amino)-3-methoxyphenyl)-1-(tetrahydro-2H-pyran-4-yl)-1,4-azaphosphinane 4-oxide] | 46% | 9.4% | 84%

Source: patent US12479847B2 (DANA-FARBER CANCER INSTITUTE, INC., priority 2019, dated 2025)
